#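 The concentration for 50% growth inhibition is given as GI50. At the TGI there is no net growth.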
# Assays:
# Test in all cases: growth of human tumour cells (NCI), 384-well format
# [1] = system: MOLT-4 leukemia
# [2] = system: HOP-62 NSCLC
# [3] = system: HT29 colon
# [4] = system: LOX IMVI melanoma
# [5] = system: PC-3 prostate
# [6] = system: SK-MEL-5 melanoma
# [7] = system: SF-295 CNS
# [8] = system: SK-MEL-2 melanoma
# [9] = system: SK-OV-3 ovarian
# [10] = system: NCI-H226 lung
# [11] = system: COLO 205 colon
# [12] = system: HL-60(TB) leukemia
# [13] = system: BT-549 breast
# [14] = system: MDA-MB-231 breast
# [15] = system: SF-268 CNS
# [16] = system: OVCAR-3 ovarian
# [17] = system: T-47D breast
# [18] = system: NCI-H322M lung
# [19] = system: MCF7 breast
# [20] = system: RPMI-8226 leukemia
# [21] = system: EKVX NSCLC
# [22] = system: UACC-257 melanoma
# [23] = system: SW-620 colon
# [24] = system: CAKI-1 renal
# [25] = system: UACC-62 melanoma
# [26] = system: CCRF-CEM leukemia
# [27] = system: SNB-75 CNS
# [28] = system: M14 melanoma
# [29] = system: 786-0 renal
# [30] = system: NCI/ADR-RES ovarian
# [31] = system: SK-MEL-28 melanoma
# [32] = system: NCI-H23 lung
# [33] = system: OVCAR-4 ovarian
# [34] = system: SN12C renal
# [35] = system: RXF 393 renal
# [36] = system: HCT-15 colon
# [37] = system: SF-539 CNS
# [38] = system: HCT-116 colon
# [39] = system: DU-145 prostate
# [40] = system: TK-10 renal
# [41] = system: NCI-H522 lung
# [42] = system: NCI-H460 NSCLC
# [43] = system: IGROV1 ovarian
# [44] = system: A498 renal
# [45] = system: U251 glioblastoma
# [46] = system: SNB-19 CNS
# [47] = system: OVCAR-8 ovarian
compound,measurement,setting,value
N#Cc1cnc(Nc2cc(NC[C@H]3CNCCO3)c(C(F)(F)F)cn2)cn1,GI50,[1],0.404 µM
same,TGI,[1],1.34 µM
same,GI50,[2],3.75 µM
same,TGI,[2],16.8 µM
same,GI50,[3],20.6 µM
same,TGI,[3],> 74.7 µM
same,GI50,[4],14.9 µM
same,TGI,[4],32.6 µM
same,GI50,[5],16.4 µM
same,TGI,[5],40.3 µM
same,GI50,[6],2.97 µM
same,TGI,[6],16 µM
same,GI50,[7],0.946 µM
same,TGI,[7],4.12 µM
same,GI50,[8],10.8 µM
same,TGI,[8],22.7 µM
same,GI50,[9],2.33 µM
same,TGI,[9],11 µM
same,GI50,[10],20.1 µM
same,TGI,[10],54.1 µM
same,GI50,[11],15.3 µM
same,TGI,[11],34.4 µM
same,GI50,[12],0.625 µM
same,TGI,[12],1.76 µM
same,GI50,[13],0.377 µM
same,TGI,[13],1.71 µM
same,GI50,[14],16.8 µM
same,TGI,[14],42.3 µM
same,GI50,[15],14.4 µM
same,TGI,[15],30.1 µM
same,GI50,[16],9.42 µM
same,TGI,[16],25.4 µM
same,GI50,[17],25.4 µM
same,TGI,[17],51.3 µM
same,GI50,[18],9.8 µM
same,TGI,[18],32.4 µM
same,GI50,[19],0.728 µM
same,TGI,[19],20.7 µM
same,GI50,[20],1.21 µM
same,TGI,[20],5.28 µM
same,GI50,[21],14.5 µM
same,TGI,[21],34 µM
same,GI50,[22],17.6 µM
same,TGI,[22],31.8 µM
same,GI50,[23],16.8 µM
same,TGI,[23],39.4 µM
same,GI50,[24],12.2 µM
same,TGI,[24],53.8 µM
same,GI50,[25],7.66 µM
same,TGI,[25],21 µM
same,GI50,[26],0.333 µM
same,TGI,[26],0.976 µM
same,GI50,[27],14.7 µM
same,TGI,[27],27.9 µM
same,GI50,[28],0.292 µM
same,TGI,[28],0.785 µM
same,GI50,[29],1.59 µM
same,TGI,[29],15.2 µM
same,GI50,[30],0.963 µM
same,TGI,[30],2.91 µM
same,GI50,[31],18.1 µM
same,TGI,[31],35.6 µM
same,GI50,[32],0.508 µM
same,TGI,[32],12.3 µM
same,GI50,[33],1.86 µM
same,TGI,[33],34.4 µM
same,GI50,[34],18.3 µM
same,TGI,[34],38.5 µM
same,GI50,[35],0.272 µM
same,TGI,[35],0.715 µM
same,GI50,[36],5.16 µM
same,TGI,[36],> 65.1 µM
same,GI50,[37],0.38 µM
same,TGI,[37],1.18 µM
same,GI50,[38],17.5 µM
same,TGI,[38],47.5 µM
same,GI50,[39],5.48 µM
same,TGI,[39],19.4 µM
same,GI50,[40],1.14 µM
same,TGI,[40],10.2 µM
same,GI50,[41],13.6 µM
same,TGI,[41],26.9 µM
same,GI50,[42],8.14 µM
same,TGI,[42],21 µM
same,GI50,[43],9.13 µM
same,TGI,[43],47.6 µM
same,GI50,[44],0.234 µM
same,TGI,[44],0.531 µM
same,GI50,[45],17.4 µM
same,TGI,[45],39.7 µM
same,GI50,[46],9.81 µM
same,TGI,[46],62.7 µM
same,GI50,[47],1.66 µM
same,TGI,[47],22.2 µM

# Source: PubChem BioAssay (NCI)
